Key:
lambsquarters [1] = experiment: Test Example 4: herbicidal effect by soil treatment (Table 19, symbol O); format: in vivo, lambsquarters (Chenopodium album); details: amount of applied herbicide 320 g/ha
In short: (§1)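 Emulsion of test compound, water-diluted to predetermined amount, sprayed on soil after sowing (seed depth ~1.5 cm, sterilized diluvial soil). Greenhouse, 25–30° C. Effect graded at three weeks post-spray.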

late watergrass = experiment: Test Example 1: herbicidal activity, application before weed generation under submerged conditions (Table 16, symbol A); format: in vivo, late watergrass (Echinochloa oryzicola); details: 320 g/ha applied herbicide
In short: (§2)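 Emulsion formulation, water-diluted to set dose, was put onto the flooded surface (4 cm depth, alluvial soil) the same day weeds were sown and 2.5-leaf rice transplanted. After 3 weeks at 25-30 °C under glass, each species was rated 0 (≤5% kill) to 5 (≥90% kill).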

velvetleaf [2] = experiment: Test Example 5: herbicidal effect by foliage application, plastic box (Table 20, symbol M); format: in vivo, velvetleaf (Abutilon theophrasti); details: foliage application, 320 g/ha, three weeks after application
In short: (§3)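 Post-emergence foliar test in sterilized diluvial soil. Compound applied as water-diluted emulsion at a predetermined rate to 14-day-old plants; evaluation at three weeks.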

blackgrass [3] = experiment: Test Example 4: herbicidal effect by soil treatment (Table 19, symbol J); format: in vivo, blackgrass (Alopecurus myosuroides); details: amount of applied herbicide 320 g/ha
In short: as §1

redroot pigweed [4] = experiment: Test Example 5: herbicidal effect by foliage application, plastic box (Table 20, symbol N); format: in vivo, redroot pigweed (Amaranthus retroflexus); details: foliage application, 320 g/ha, three weeks after application
In short: as §3

Italian ryegrass [5] = experiment: Test Example 5: herbicidal effect by foliage application, plastic box (Table 20, symbol K); format: in vivo, Italian ryegrass (Lolium multiflorum); details: foliage application, 320 g/ha, three weeks after application
In short: as §3

southern crabgrass [6] = experiment: Test Example 4: herbicidal effect by soil treatment (Table 19, symbol F); format: in vivo, southern crabgrass (Digitaria ciliaris); details: amount of applied herbicide 320 g/ha
In short: as §1

false cleavers [7] = experiment: Test Example 4: herbicidal effect by soil treatment (Table 19, symbol Q); format: in vivo, false cleavers (Galium spurium); details: amount of applied herbicide 320 g/ha
In short: as §1

wild oat [8] = experiment: Test Example 5: herbicidal effect by foliage application, plastic box (Table 20, symbol I); format: in vivo, wild oat (Avena fatua); details: foliage application, 320 g/ha, three weeks after application
In short: as §3

rice flat sedge = experiment: Test Example 3: herbicidal effect by foliage application, Wagner pot (Table 18, symbol E); format: in vivo, rice flat sedge (Cyperus iria); details: 320 g/ha
In short: (§4)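 Plants were sown in alluvial soil held under 0.1–0.5 cm standing water and grown 14 days in a greenhouse at 25–30 °C. An emulsifiable formulation, water-diluted to the set dose, was then sprayed onto the foliage, and effects were scored three weeks later using previously defined criteria.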

chickweed [9] = experiment: Test Example 4: herbicidal effect by soil treatment (Table 19, symbol P); format: in vivo, common chickweed (Stellaria media); details: amount of applied herbicide 320 g/ha
In short: as §1

Italian ryegrass [10] = experiment: Test Example 4: herbicidal effect by soil treatment (Table 19, symbol K); format: in vivo, Italian ryegrass (Lolium multiflorum); details: amount of applied herbicide 320 g/ha
In short: as §1

blackgrass [11] = experiment: Test Example 5: herbicidal effect by foliage application, plastic box (Table 20, symbol J); format: in vivo, blackgrass (Alopecurus myosuroides); details: foliage application, 320 g/ha, three weeks after application
In short: as §3

southern crabgrass [12] = experiment: Test Example 5: herbicidal effect by foliage application, plastic box (Table 20, symbol F); format: in vivo, southern crabgrass (Digitaria ciliaris); details: foliage application, 320 g/ha, three weeks after application
In short: as §3

barnyard grass [13] = experiment: Test Example 3: herbicidal effect by foliage application, Wagner pot (Table 18, symbol H); format: in vivo, barnyard grass (Echinochloa crus-galli); details: 320 g/ha
In short: as §4

oval-leafed pondweed = experiment: Test Example 1: herbicidal activity, application before weed generation under submerged conditions (Table 16, symbol C); format: in vivo, oval-leafed pondweed (Monochoria vaginalis); details: 320 g/ha applied herbicide
In short: as §2

Japanese bulrush = experiment: Test Example 1: herbicidal activity, application before weed generation under submerged conditions (Table 16, symbol B); format: in vivo, Japanese bulrush (Schoenoplectus juncoides); details: 320 g/ha applied herbicide
In short: as §2

lambsquarters [14] = experiment: Test Example 5: herbicidal effect by foliage application, plastic box (Table 20, symbol O); format: in vivo, lambsquarters (Chenopodium album); details: foliage application, 320 g/ha, three weeks after application
In short: as §3

persian speedwell [15] = experiment: Test Example 4: herbicidal effect by soil treatment (Table 19, symbol R); format: in vivo, Persian speedwell (Veronica persica); details: amount of applied herbicide 320 g/ha
In short: as §1

persian speedwell [16] = experiment: Test Example 5: herbicidal effect by foliage application, plastic box (Table 20, symbol R); format: in vivo, Persian speedwell (Veronica persica); details: foliage application, 320 g/ha, three weeks after application
In short: as §3

chickweed [17] = experiment: Test Example 5: herbicidal effect by foliage application, plastic box (Table 20, symbol P); format: in vivo, common chickweed (Stellaria media); details: foliage application, 320 g/ha, three weeks after application
In short: as §3

velvetleaf [18] = experiment: Test Example 4: herbicidal effect by soil treatment (Table 19, symbol M); format: in vivo, velvetleaf (Abutilon theophrasti); details: amount of applied herbicide 320 g/ha
In short: as §1

redroot pigweed [19] = experiment: Test Example 4: herbicidal effect by soil treatment (Table 19, symbol N); format: in vivo, redroot pigweed (Amaranthus retroflexus); details: amount of applied herbicide 320 g/ha
In short: as §1

Chinese sprangletop = experiment: Test Example 3: herbicidal effect by foliage application, Wagner pot (Table 18, symbol D); format: in vivo, chinese sprangletop (Leptochloa chinensis); details: 320 g/ha
In short: as §4

barnyard grass [20] = experiment: Test Example 4: herbicidal effect by soil treatment (Table 19, symbol H); format: in vivo, barnyard grass (Echinochloa crus-galli); details: amount of applied herbicide 320 g/ha
In short: as §1

windgrass [21] = experiment: Test Example 4: herbicidal effect by soil treatment (Table 19, symbol L); format: in vivo, windgrass (Apera spica-venti); details: amount of applied herbicide 320 g/ha
In short: as §1

false cleavers [22] = experiment: Test Example 5: herbicidal effect by foliage application, plastic box (Table 20, symbol Q); format: in vivo, false cleavers (Galium spurium); details: foliage application, 320 g/ha, three weeks after application
In short: as §3

green foxtail [23] = experiment: Test Example 5: herbicidal effect by foliage application, plastic box (Table 20, symbol G); format: in vivo, green foxtail (Setaria viridis); details: foliage application, 320 g/ha, three weeks after application
In short: as §3

wild oat [24] = experiment: Test Example 4: herbicidal effect by soil treatment (Table 19, symbol I); format: in vivo, wild oat (Avena fatua); details: amount of applied herbicide 320 g/ha
In short: as §1

barnyard grass [25] = experiment: Test Example 5: herbicidal effect by foliage application, plastic box (Table 20, symbol H); format: in vivo, barnyard grass (Echinochloa crus-galli); details: foliage application, 320 g/ha, three weeks after application
In short: as §3

green foxtail [26] = experiment: Test Example 4: herbicidal effect by soil treatment (Table 19, symbol G); format: in vivo, green foxtail (Setaria viridis); details: amount of applied herbicide 320 g/ha
In short: as §1

windgrass [27] = experiment: Test Example 5: herbicidal effect by foliage application, plastic box (Table 20, symbol L); format: in vivo, windgrass (Apera spica-venti); details: foliage application, 320 g/ha, three weeks after application
In short: as §3

Row | Structure (SMILES) | herbicidal effect rating, O: lambsquarters (lambsquarters [1]) | Herbicidal effect on A: late watergrass (grade 0-5) (late watergrass) | herbicidal effect grade, M: velvetleaf (velvetleaf [2]) | herbicidal effect rating, J: blackgrass (blackgrass [3]) | herbicidal effect grade, N: redroot pigweed (redroot pigweed [4]) | herbicidal effect grade, K: Italian ryegrass (Italian ryegrass [5]) | herbicidal effect rating, F: southern crabgrass (southern crabgrass [6]) | herbicidal effect rating, Q: false cleavers (false cleavers [7]) | herbicidal effect grade, I: wild oat (wild oat [8]) | herbicidal effect on E (rice flat sedge), rating 0-5 (rice flat sedge) | herbicidal effect rating, P: chickweed (chickweed [9]) | herbicidal effect rating, K: Italian ryegrass (Italian ryegrass [10]) | herbicidal effect grade, J: blackgrass (blackgrass [11]) | herbicidal effect grade, F: southern crabgrass (southern crabgrass [12]) | herbicidal effect on H (barnyard grass), rating 0-5 (barnyard grass [13]) | Herbicidal effect on C: oval-leafed pondweed (grade 0-5) (oval-leafed pondweed) | Herbicidal effect on B: Japanese bulrush (grade 0-5) (Japanese bulrush) | herbicidal effect grade, O: lambsquarters (lambsquarters [14]) | herbicidal effect rating, R: persian speedwell (persian speedwell [15]) | herbicidal effect grade, R: persian speedwell (persian speedwell [16]) | also measured
1 | CCCCc1ccc(-c2sc3ccccc3c2-c2c(O)c(C)nn(C)c2=O)cc1 [1-005] | 0 (Herbicidal rate of 5% or less (almost no effect)) | 2 (Herbicidal rate of 20% or more and less than 40%) | 3 (Herbicidal rate of 40% or more and less than 70%) | 0 (Herbicidal rate of 5% or less (almost no effect)) | 4 (Herbicidal rate of 70% or more and less than 90%) | 0 (Herbicidal rate of 5% or less (almost no effect)) | 0 (Herbicidal rate of 5% or less (almost no effect)) | 0 (Herbicidal rate of 5% or less (almost no effect)) | 0 (Herbicidal rate of 5% or less (almost no effect)) | 5 (Herbicidal rate of 90% or more (almost completely withered)) | 0 (Herbicidal rate of 5% or less (almost no effect)) | 0 (Herbicidal rate of 5% or less (almost no effect)) | 0 (Herbicidal rate of 5% or less (almost no effect)) | 0 (Herbicidal rate of 5% or less (almost no effect)) | 4 (Herbicidal rate of 70% or more and less than 90%) | 0 (Herbicidal rate of 5% or less (almost no effect)) | 0 (Herbicidal rate of 5% or less (almost no effect)) | 5 (Herbicidal rate of 90% or more (almost completely withered)) | 4 (Herbicidal rate of 70% or more and less than 90%) | 5 (Herbicidal rate of 90% or more (almost completely withered)) | herbicidal effect grade, P: chickweed (chickweed [17]): 5 (Herbicidal rate of 90% or more (almost completely withered)); herbicidal effect rating, M: velvetleaf (velvetleaf [18]): 0 (Herbicidal rate of 5% or less (almost no effect)); herbicidal effect rating, N: redroot pigweed (redroot pigweed [19]): 0 (Herbicidal rate of 5% or less (almost no effect)); herbicidal effect on D (Chinese sprangletop), rating 0-5 (Chinese sprangletop): 0 (Herbicidal rate of 5% or less (almost no effect)); herbicidal effect rating, H: barnyard grass (barnyard grass [20]): 0 (Herbicidal rate of 5% or less (almost no effect)); herbicidal effect rating, L: windgrass (windgrass [21]): 0 (Herbicidal rate of 5% or less (almost no effect)); herbicidal effect grade, Q: false cleavers (false cleavers [22]): 0 (Herbicidal rate of 5% or less (almost no effect)); herbicidal effect grade, G: green foxtail (green foxtail [23]): 0 (Herbicidal rate of 5% or less (almost no effect)); herbicidal effect rating, I: wild oat (wild oat [24]): 0 (Herbicidal rate of 5% or less (almost no effect)); herbicidal effect grade, H: barnyard grass (barnyard grass [25]): 0 (Herbicidal rate of 5% or less (almost no effect)); herbicidal effect rating, G: green foxtail (green foxtail [26]): 0 (Herbicidal rate of 5% or less (almost no effect)); herbicidal effect grade, L: windgrass (windgrass [27]): 0 (Herbicidal rate of 5% or less (almost no effect))
2 | CCCCc1ccc(-c2sc3ccccc3c2-c2c(OC(=O)CCC)c(C)nn(C)c2=O)cc1 [1-006] | 4 (Herbicidal rate of 70% or more and less than 90%) | 3 (Herbicidal rate of 40% or more and less than 70%) | 4 (Herbicidal rate of 70% or more and less than 90%) | 0 (Herbicidal rate of 5% or less (almost no effect)) | 5 (Herbicidal rate of 90% or more (almost completely withered)) | 0 (Herbicidal rate of 5% or less (almost no effect)) | 0 (Herbicidal rate of 5% or less (almost no effect)) | 0 (Herbicidal rate of 5% or less (almost no effect)) | 0 (Herbicidal rate of 5% or less (almost no effect)) | 5 (Herbicidal rate of 90% or more (almost completely withered)) | 0 (Herbicidal rate of 5% or less (almost no effect)) | 0 (Herbicidal rate of 5% or less (almost no effect)) | 0 (Herbicidal rate of 5% or less (almost no effect)) | 0 (Herbicidal rate of 5% or less (almost no effect)) | 3 (Herbicidal rate of 40% or more and less than 70%) | 0 (Herbicidal rate of 5% or less (almost no effect)) | 1 (Herbicidal rate of 5% or more and less than 20%) | 4 (Herbicidal rate of 70% or more and less than 90%) | 3 (Herbicidal rate of 40% or more and less than 70%) | 5 (Herbicidal rate of 90% or more (almost completely withered)) | herbicidal effect grade, P: chickweed (chickweed [17]): 5 (Herbicidal rate of 90% or more (almost completely withered)); herbicidal effect rating, M: velvetleaf (velvetleaf [18]): 0 (Herbicidal rate of 5% or less (almost no effect)); herbicidal effect rating, N: redroot pigweed (redroot pigweed [19]): 0 (Herbicidal rate of 5% or less (almost no effect)); herbicidal effect on D (Chinese sprangletop), rating 0-5 (Chinese sprangletop): 0 (Herbicidal rate of 5% or less (almost no effect)); herbicidal effect rating, H: barnyard grass (barnyard grass [20]): 0 (Herbicidal rate of 5% or less (almost no effect)); herbicidal effect rating, L: windgrass (windgrass [21]): 0 (Herbicidal rate of 5% or less (almost no effect)); herbicidal effect grade, Q: false cleavers (false cleavers [22]): 0 (Herbicidal rate of 5% or less (almost no effect)); herbicidal effect grade, G: green foxtail (green foxtail [23]): 0 (Herbicidal rate of 5% or less (almost no effect)); herbicidal effect rating, I: wild oat (wild oat [24]): 0 (Herbicidal rate of 5% or less (almost no effect)); herbicidal effect grade, H: barnyard grass (barnyard grass [25]): 0 (Herbicidal rate of 5% or less (almost no effect)); herbicidal effect rating, G: green foxtail (green foxtail [26]): 0 (Herbicidal rate of 5% or less (almost no effect)); herbicidal effect grade, L: windgrass (windgrass [27]): 0 (Herbicidal rate of 5% or less (almost no effect))

— patent publication US20230085307A1, “PYRIDAZINONE COMPOUND AND HERBICIDE” (NISSAN CHEMICAL CORPORATION, priority 2019, published 2023)
